The test system of assay [1] is BAL cell influx induced by TS. Nature of the assay: Pre-clinical mouse model of COPD: tobacco smoke induced pulmonary inflammation. The format is in vivo. Particulars: mice, 3, 30 or 100 μg/kg, intranasal route, 4 daily TS exposures, BAL 24 h after final exposure (FIG. 1). The text has this: Pre-Clinical Mouse Model of COPD Tobacco Smoke Induced Pulmonary Inflammation.
This timepoint was used in the studies reported here.
Protocols for the exposure of mice to TS, obtaining bronchoalveolar lavage fluid (BALF) and preparation of cytospin slides for differential cell counts are as outlined below.
Daily Exposure of Mice to TS for 4 Consecutive Days.
In this exposure protocol, mice were exposed in groups of 5 in individual clear polycarbonate chambers (27 cm×16 cm×12 cm). The TS from the cigarettes was allowed to enter the exposure chambers at a flow rate of 100 ml/min. In order to minimise any potential problems caused by repeated exposure to a high level of TS, the exposure of the mice to TS was increased gradually over the exposure period to a maximum of 6 cigarettes. […]
Lavage fluid was separated from cells by centrifugation and the supernatant decanted and frozen for subsequent analyses. The cell pellet was re-suspended in a known volume of PBS and total cell numbers calculated by counting a stained (Turks stain) aliquot under a microscope using a haemocytometer. […]
The residual cell pellet was diluted to approximately 10^5 cells per ml. […] Approximately four hundred cells were counted by an unbiased operator using light microscopy. […]
All results are presented as individual data points for each animal and the mean value was calculated for each group. […]

Assay [2] relates to LPS-stimulated TNFα release from PBMCs. Kind of assay: LPS-stimulated PBMC TNFα release assay. Type of assay: cell-based. Particulars: inhibition of TNFα release, human PBMCs, LPS 10 ng/ml, 18 h, ELISA, read-out: p38α inhibition (IC50 values). The method in brief:
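TNFα in supernatants measured by ELISA after 18 h LPS (10 ng/ml) challenge of human PBMCs given 1 h compound pretreatment at 37 °C in medium with 1% FBS. Percent inhibition versus control release fitted to dose-response curves for IC50; at least three independent runs.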
(In an ELISA, binding on a coated surface is turned into a signal by an enzyme label.)

A further assay concerns the target T1, p38alpha (Homo sapiens, UniProt Q16539).
T1 construct: purchased Invitrogen PV3304
Kind of assay: P38Alpha enzyme inhibition assay (Alphascreen kinase activity assay). Type of assay: biochemical. To be noted: 100 pM p38alpha, 250 μM ATP, 2 hours pre-incubation at 25° C., read-out: p38α inhibition (IC50 values). In outline: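 AlphaScreen read-out: after an EDTA stop, an anti-phospho-ATF2 antibody with Protein A acceptor and donor beads measured substrate phosphorylation. Compounds sat 2 h at 25°C with 100 pM p38α and 0.3 µg/ml ATF-2 fusion protein (pH 7.5, 1% DMSO) before 250 µM ATP was added for 1 h. IC50 from dose-response.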
In general terms: Bead proximity is the source of the signal in Alpha formats.

pIC50: −log10 of the molar value. Structures can show the parent of a compound that is named as a salt. Bounds are passed on as bounds.

T1 sequence (Q16539 whole entry): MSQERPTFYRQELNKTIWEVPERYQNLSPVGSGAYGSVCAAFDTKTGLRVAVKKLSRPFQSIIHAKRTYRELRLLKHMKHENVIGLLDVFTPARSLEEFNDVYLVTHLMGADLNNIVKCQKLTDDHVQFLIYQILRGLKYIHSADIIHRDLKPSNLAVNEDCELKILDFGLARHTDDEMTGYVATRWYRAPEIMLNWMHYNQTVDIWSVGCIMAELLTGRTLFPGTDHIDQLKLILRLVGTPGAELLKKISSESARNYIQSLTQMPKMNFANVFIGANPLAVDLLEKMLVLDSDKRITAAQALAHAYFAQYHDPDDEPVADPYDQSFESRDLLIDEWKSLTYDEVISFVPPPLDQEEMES

As for `Cc1ccc(-n2nc(C(C)(C)C)cc2NC(=O)N[C@H]2CC[C@@H](Oc3ccc4nnc([C@@H]5CCCN5C)n4c3)c3ccccc32)cc1` [Example 5, 1-(5-tert-Butyl-2-p-tolyl-2H-pyrazol-3-yl)-3-[(1S,4R)-4-[3-((S)-1-methyl-pyrrolidin-2-yl)-[1,2,4]triazolo[4,3-a]pyridin-6-yloxy)-1,2,3,4-tetrahydro-naphthalen-1-yl]-urea], in assay [1], the “BAL cell influx induced by TS” value is reported as “significantly inhibited”. The pIC50 (in assay [2]; at p38alpha) was above 8.00 throughout.

With `C[C@@H]1CCC[C@H](C)N1c1nnc2ccc(O[C@@H]3CC[C@H](NC(=O)Nc4cc(C(C)(C)C)nn4-c4cnn(CCN5CCOCC5)c4)c4ccccc43)cn12` [Example 124, 1-[3-tert-Butyl-1′-(2-morpholin-4-yl-ethyl)-1′H-[1,4′]bipyrazolyl-5-yl]-3-((1S,4R)-4-[3-((2S,6R)-2,6-dimethyl-piperidin-1-yl)-[1,2,4]triazolo[4,3-a]pyridin-6-yloxy]-1,2,3,4-tetrahydro-naphthalen-1-yl)-urea formate salt], the pIC50 (in assay [2]; at p38alpha) was above 8.00 in each case.

As for `C[C@@H]1CCC[C@H](C)N1c1nnc2ccc(O[C@@H]3CC[C@H](NC(=O)Nc4cc(C(C)(C)C)nn4-c4cnn(CCN(C)C)c4)c4ccccc43)cn12` [Example 125, 1-[3-tert-Butyl-1′-(2-dimethylamino-ethyl)-1′H-[1,4′]bipyrazolyl-5-yl]-3-{(1S,4R)-4-[3-((2S,6R)-2,6-dimethyl-piperidin-1-yl)-[1,2,4]triazolo[4,3-a]pyridin-6-yloxy]-1,2,3,4-tetrahydro-naphthalen-1-yl}-urea], the negative-log IC50 (pIC50) (in assay [2]; on p38alpha) was above 8.00 throughout.

Turning to `C[C@H]1CCCCN1c1nnc2ccc(O[C@@H]3CC[C@H](NC(=O)Nc4cc(C(C)(C)C)nn4C)c4ccccc43)cn12` [Example 126, 1-(5-tert-Butyl-2-methyl-2H-pyrazol-3-yl)-3-{(1S,4R)-4-[3-((S)-2-methyl-piperidin-1-yl)-[1,2,4]triazolo[4,3-a]pyridin-6-yloxy]-1,2,3,4-tetrahydronaphthalen-1-yl]-urea], the pIC50 (in assay [2]; at p38alpha) was above 8.00 throughout.

For the compound `C[C@H]1CCCCN1c1nnc2ccc(O[C@@H]3CC[C@H](NC(=O)Nc4cc(C(C)(C)C)nn4CCN(C)C)c4ccccc43)cn12` [Example 127, 1-[5-tert-Butyl-2-(2-dimethylamino-ethyl)-2H-pyrazol-3-yl]-3-{(1S,4R)-4-[3-((S)-2-methyl-piperidin-1-yl)-[1,2,4]triazolo[4,3-a]pyridin-6-yloxy]-1,2,3,4-tetrahydro-naphthalen-1-yl}-urea formate salt], the pIC50 (in assay [2]; at p38alpha) was above 8.00 in each case.

Take `C[C@H]1CCCCN1c1nnc2ccc(O[C@@H]3CC[C@H](NC(=O)Nc4cc(C(C)(C)C)nn4CCN4CCCCC4)c4ccccc43)cn12` [Example 128, 1-[5-tert-Butyl-2-(2-piperidin-1-yl-ethyl)-2H-pyrazol-3-yl]-3-{(1S,4R)-4-[3-((S)-2-methyl-piperidin-1-yl)-[1,2,4]triazolo[4,3-a]pyridin-6-yloxy]-1,2,3,4-tetrahydro-naphthalen-1-yl}-urea formate salt]: the pIC50 (in assay [2]; on p38alpha) was above 8.00 each time.

As to `C[C@H]1CCCCN1c1nnc2ccc(O[C@@H]3CC[C@H](NC(=O)Nc4cc(C(C)(C)C)nn4CCN4CCN(C)CC4)c4ccccc43)cn12` [Example 129, 1-{5-tert-Butyl-2-[2-(4-methyl-piperazin-1-yl)-ethyl]-2H-pyrazol-3-yl}-3-{(1S,4R)-4-[3-((S)-2-methyl-piperidin-1-yl)-[1,2,4]triazolo[4,3-a]pyridin-6-yloxy]-1,2,3,4-tetrahydro-naphthalen-1-yl}-urea formate salt], the pIC50 in assay [2] was 7.00 to 8.00; on p38alpha, above 8.00.

Turning to `C[C@@H]1CCC[C@H](C)N1c1nnc2ccc(O[C@@H]3CC[C@H](NC(=O)Nc4cc(C(C)(C)C)nn4-c4cccc(CN5CCOCC5)c4)c4ccccc43)cn12` [Example 130, 1-[5-tert-Butyl-2-(3-morpholin-4-ylmethyl-phenyl)-2H-pyrazol-3-yl]-3-{(1S,4R)-4-[3-((2S,6R)-2,6-dimethyl-piperidin-1-yl)-[1,2,4]triazolo[4,3-a]pyridin-6-yloxy]-1,2,3,4-tetrahydro-naphthalen-1-yl}-urea formate salt], the negative logarithm of the IC50 (pIC50) (in assay [2]; on p38alpha) was above 8.00 throughout.

Broadly, the pIC50 is −log10 of the IC50, conventionally taken in molar units.

Values taken from patent publication US9315503B2, “Kinase inhibitors” (CHIESI FARMACEUTICI S.p.A., priority 2011, dated 2016).
